According to PubChem BioAssay (NCI):
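Dose response: 5 concentrations. Exposure: 48 h. Format: 96-well plates. Endpoint: linear interpolation; highest concentration if not reached. Abbreviation: GI50, concentration required for 50% inhibition of growth. TGI: total growth inhibition.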

What was measured:
Test in all cases: NCI anticancer screen, dose series, 48 h
CCRF-CEM leukemia = tested on: CCRF-CEM leukemia
HT29 colon = tested on: HT29 colon
LOX IMVI melanoma = tested on: LOX IMVI melanoma
OVCAR-8 ovarian = tested on: OVCAR-8 ovarian
SK-MEL-2 melanoma = tested on: SK-MEL-2 melanoma
SK-MEL-28 melanoma = tested on: SK-MEL-28 melanoma
SN12C renal = tested on: SN12C renal
SNB-19 CNS = tested on: SNB-19 CNS
UO-31 renal = tested on: UO-31 renal
NCI/ADR-RES ovarian = tested on: NCI/ADR-RES ovarian

SMILES	TGI (CCRF-CEM leukemia) [µM]	TGI (HT29 colon) [µM]	TGI (LOX IMVI melanoma) [µM]	TGI (OVCAR-8 ovarian) [µM]	TGI (SK-MEL-2 melanoma) [µM]	TGI (SK-MEL-28 melanoma) [µM]	TGI (SN12C renal) [µM]	TGI (SNB-19 CNS) [µM]	TGI (UO-31 renal) [µM]	GI50 (CCRF-CEM leukemia) [µM]	GI50 (HT29 colon) [µM]	GI50 (LOX IMVI melanoma) [µM]	GI50 (NCI/ADR-RES ovarian) [µM]	TGI (NCI/ADR-RES ovarian) [µM]	GI50 (OVCAR-8 ovarian) [µM]	GI50 (SK-MEL-2 melanoma) [µM]	GI50 (SK-MEL-28 melanoma) [µM]	GI50 (SN12C renal) [µM]	GI50 (UO-31 renal) [µM]	GI50 (SNB-19 CNS) [µM]
O=CN/C=C\c1cc(O)ccc1O	> 100	> 31.6	22.7	32.1	> 100	> 64.9	28.9	> 100	29.1	–	–	–	–	–	–	–	–	–	–	–
Cc1nc(N(C)C)nc(-c2cccc(-c3ccn(CCN(C)C)n3)c2)c1C	> 20	> 20	> 20	> 20	> 20	> 20	> 20	–	> 20	> 20	> 20	> 20	> 20	> 20	> 20	> 20	> 20	> 20	9.63	–
OC1OC2COC(c3ccccc3)OC2C(O)C1O (stereo not given)	> 100	> 100	> 100	> 100	> 100	–	> 100	> 100	> 100	–	–	–	–	–	–	–	–	–	–	–
CC(=O)c1ccc(-c2ccc(C(C)=O)s2)s1	> 100	> 100	> 100	> 100	> 100	3.24	> 100	> 100	> 100	–	–	–	–	–	–	–	–	–	–	–
CCCCCCCCCCCC(=O)[O][Sn]([CH2]CCC)([CH2]CCC)[CH2]CCC	–	0.11	0.0712	0.363	0.13	0.179	0.221	0.228	0.0849	–	0.0355	0.0259	0.0703	0.236	0.0842	0.0555	0.0649	0.0767	0.0347	0.0859
C=C1[C@@H]2CCC(C)(C)[C@H]1CCC(=O)[C@@H]2C(=O)OC	> 100	> 100	> 100	> 100	> 100	> 100	> 100	> 100	> 100	–	–	–	–	–	–	–	–	–	–	–
COc1ccc2c(C(=O)NCCCCCC(=O)O)cc3cc4c(cc3c2c1)OCO4	> 100	> 100	> 100	> 100	–	> 100	> 100	> 100	–	> 100	> 100	> 100	> 100	> 100	> 100	–	> 100	> 100	–	> 100
Nc1c(S(=O)(=O)O)cc2c(c1Cl)C(=O)c1ccccc1C2=O	> 100	> 100	> 100	> 100	–	> 100	> 100	> 100	> 100	> 100	> 100	> 100	> 100	> 100	> 100	–	> 100	> 100	> 100	> 100
